pKi: −log10 of the molar value. Counter-ions that a name gives are not always drawn.
Biological target: T1, human MCH1R receptor (Homo sapiens, UniProt Q99705)
T1 construct: host or cells: CHO-K1
Assay: MCH1R receptor binding by SPA ([125I]-MCH displacement)
Conditions: 0.2 nM [125I]-MCH, membranes of CHO-K1 cells expressing hMCH1 receptor, WGA SPA beads; Ki calculated from IC50
Description: The compounds according to the invention were evaluated for their binding to the human MCH1R receptor by the following method:
Compounds: MCH peptide was purchased from Phoenix pharmaceuticals. (Phe^13, [^125I]Tyr^19 Melanine-Concentrating Hormone (human, mouse, rat) ([^125I]-MCH) was obtained from NEN life Science Products. Inc. Boston, Mass. Wheat germ agglutinine SPA beads (RPNQ 0001) were obtained from Amersham-Pharmacia Biotech. All other reagents used are of highest purity from different resources available. Protein Kits, Micro BCA™ Protein Assay Reagent Kit (Cat No. 23235) were purchased from Piece, Rockford, Ill., USA.
CHO-K1 cells expressing hMCH1 receptor were purchased from Euroscreen.
CHO-K1 hMCHR1 (Euroscreen, Brussels, Belgium, # ES-370-C) were cultivated in Nutrient mixture Ham's F-12 with Glutamax I (Gibco-BRL #31765-027) supplemented with 10% heat-inactivated foetal calf serum (FCS, Gibco-BRL #10108-165) and 400 μg/ml geniticin (Gibco-BRL #1140-0359). The cells were sub-cultivated twice weekly with split ratio=1:20-1:30. For membrane preparation the cells were cultured in […] and the cells were harvested when 90% confluent.
When the cells reached more than 90% confluence, dishes (500 cm^2) were rinsed twice with 20 ml PBS (Ca^2+ and Mg^2+ free). Buffer A, which contains Tris.HCl (15), MgCl2.6H2O (2), EDTA (0.3), EGTA (1) in mM with pH 7.5, 25 ml was added and cells were suspended using a window scraper. The cells were collected in 50 ml Falcon tube pre-cooled on ice and then centrifuged for 3 minutes at 1500 g at 4° C. […]
The radio labeled [^125I]-MCH was diluted with cold MCH in ratio 1:3. […] The results were calculated using Excel program and the curves were drawn using a program GraphPad Prism.
For screening of the substances the amount of the beads used was 0.25 mg/well and the amount of the membrane protein was 4 μg/well 0.2 nM of labeled MCH was used. […] The samples were counted using Microbeta counter (Wallac Trilux 1450 Micro beta counter, Wallac, Finland) for 2 minutes and the results were calculated by using the computer program Activity Base. […]

T1 sequence (Q99705 whole entry): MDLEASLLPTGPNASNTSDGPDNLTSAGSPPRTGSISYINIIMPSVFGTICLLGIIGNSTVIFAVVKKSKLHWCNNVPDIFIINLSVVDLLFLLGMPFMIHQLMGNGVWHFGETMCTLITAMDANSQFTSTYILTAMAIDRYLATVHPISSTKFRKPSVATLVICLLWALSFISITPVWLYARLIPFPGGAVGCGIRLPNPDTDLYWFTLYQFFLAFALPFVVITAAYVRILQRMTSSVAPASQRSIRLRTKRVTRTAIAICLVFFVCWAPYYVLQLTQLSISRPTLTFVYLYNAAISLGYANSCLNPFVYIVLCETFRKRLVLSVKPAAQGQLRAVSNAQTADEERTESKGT

| Compound | pKi |
| --- | --- |
| CCOc1ccc([C@@]23CC[C@@H](NC(=O)Nc4ccc(F)c(F)c4)C[C@@H]2N(C)CC3)cc1OCC (relative stereo) [Example 208, N-[(3aS*,6R*,7aS*)-3a-(3,4-diethoxyphenyl)-1-methyloctahydro-1H-indol-6-yl]-N′-(3,4-difluoro]henyl)urea trifluoroacetate] | 6.59 |
| C=CCN(C(=O)Nc1ccc(Cl)c(C(F)(F)F)c1)C1CCC2(c3ccc(OC)c(OC)c3)CCN(C)C2C1 (stereo not drawn) [Example 159, N-ally-N′-[4-chloro-3-(trifluoromethyl)phenyl]-N-[(3aS*,6R*,7aS*)-3a-(3,4-dimethoxyphenyl)-1-methyloctahydro-1H-indol-6-yl]urea] | 7.12 |
| COc1ccc([C@@]23CC[C@@H](NC(=O)Nc4ccc(OC(F)(F)F)cc4)C[C@@H]2N(C)CC3)cc1OC (relative stereo) [Example 70, N-[(3aS*,6R*,7aS*)-3a-(3,4-dimethoxyphenyl)-1-methyloctahydro-1H-indol-6-yl]-N′-[4-(trifluoromethoxy)phenyl]urea trifluoroacetate] | 7.28 |

Reference: patent publication US20050239841A1, “New compounds” (priority 2003, published 2005)
